# Experimental data: patent publication US9309224B2 (Deciphera Pharmaceuticals, LLC, priority 2013, dated 2016)
# Experiments:
# [1] = target: T1, unphosphorylated c-FMS kinase (uFMS, Seq. ID no. 1) (Homo sapiens, UniProt P07333); test: uFMS kinase assay (pyruvate kinase/lactate dehydrogenase coupled); format: biochemical; conditions: ATP 500 μM
# T1 construct: purchased Millipore
# T1 sequence (P07333 538-972): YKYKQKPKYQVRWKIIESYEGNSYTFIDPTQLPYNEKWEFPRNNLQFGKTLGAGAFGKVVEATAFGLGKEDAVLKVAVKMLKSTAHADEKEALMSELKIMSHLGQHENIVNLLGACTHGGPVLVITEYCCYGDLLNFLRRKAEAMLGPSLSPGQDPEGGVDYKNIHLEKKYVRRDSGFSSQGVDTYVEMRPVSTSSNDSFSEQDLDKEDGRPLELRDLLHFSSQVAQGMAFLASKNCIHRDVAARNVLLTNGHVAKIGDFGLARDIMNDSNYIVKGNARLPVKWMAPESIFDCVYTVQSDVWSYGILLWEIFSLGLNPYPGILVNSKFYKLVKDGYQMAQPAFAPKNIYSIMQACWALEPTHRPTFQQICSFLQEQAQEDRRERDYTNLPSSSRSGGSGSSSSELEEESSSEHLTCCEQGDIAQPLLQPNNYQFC
# [2] = target: T2, unphosphorylated c-KIT kinase (uKIT, Seq. ID no. 2) (Homo sapiens, UniProt P10721); test: uKit kinase assay (pyruvate kinase/lactate dehydrogenase coupled); format: biochemical; conditions: ATP 2000 μM
# T2 construct: uKit with N-terminal GST fusion used for
# T2 sequence (P10721 with tags, fused parts or gaps): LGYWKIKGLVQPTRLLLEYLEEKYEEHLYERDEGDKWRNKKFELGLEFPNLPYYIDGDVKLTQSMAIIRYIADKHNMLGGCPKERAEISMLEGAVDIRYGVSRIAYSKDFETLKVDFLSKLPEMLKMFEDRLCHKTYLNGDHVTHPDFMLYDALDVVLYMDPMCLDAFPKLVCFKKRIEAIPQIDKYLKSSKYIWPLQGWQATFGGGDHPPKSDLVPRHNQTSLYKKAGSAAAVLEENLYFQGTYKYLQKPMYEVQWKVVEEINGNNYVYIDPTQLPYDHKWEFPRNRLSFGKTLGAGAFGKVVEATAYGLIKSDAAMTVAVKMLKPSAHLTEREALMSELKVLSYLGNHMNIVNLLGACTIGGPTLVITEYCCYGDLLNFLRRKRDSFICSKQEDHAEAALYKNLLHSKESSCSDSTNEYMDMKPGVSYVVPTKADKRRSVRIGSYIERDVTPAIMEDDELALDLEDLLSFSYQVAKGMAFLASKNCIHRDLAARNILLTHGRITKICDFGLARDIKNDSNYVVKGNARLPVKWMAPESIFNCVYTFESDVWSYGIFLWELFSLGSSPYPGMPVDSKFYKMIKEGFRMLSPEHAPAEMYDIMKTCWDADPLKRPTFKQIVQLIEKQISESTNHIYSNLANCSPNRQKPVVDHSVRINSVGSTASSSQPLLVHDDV
# Method: In this assay, the oxidation of NADH (thus the decrease at A340 nm) was continuously monitored spectrophometrically. […] The inhibition reaction was started by mixing serial diluted test compound with the above reaction mixture. The absorption at 340 nm was monitored continuously for 4 hours at 30° C. on Synergy 2 plate reader (BioTech).
# [3] = target: T3, unphosphorylated PDGFRβ kinase (uPDGFRβ, Seq. ID No. 3) (Homo sapiens, UniProt P09619); test: Unphosphorylated PDGFRβ kinase assay (pyruvate kinase/lactate dehydrogenase coupled); format: biochemical; conditions: ATP 500 μM
# T3 construct: purchased DeCode
# T3 sequence (P09619 557-1105): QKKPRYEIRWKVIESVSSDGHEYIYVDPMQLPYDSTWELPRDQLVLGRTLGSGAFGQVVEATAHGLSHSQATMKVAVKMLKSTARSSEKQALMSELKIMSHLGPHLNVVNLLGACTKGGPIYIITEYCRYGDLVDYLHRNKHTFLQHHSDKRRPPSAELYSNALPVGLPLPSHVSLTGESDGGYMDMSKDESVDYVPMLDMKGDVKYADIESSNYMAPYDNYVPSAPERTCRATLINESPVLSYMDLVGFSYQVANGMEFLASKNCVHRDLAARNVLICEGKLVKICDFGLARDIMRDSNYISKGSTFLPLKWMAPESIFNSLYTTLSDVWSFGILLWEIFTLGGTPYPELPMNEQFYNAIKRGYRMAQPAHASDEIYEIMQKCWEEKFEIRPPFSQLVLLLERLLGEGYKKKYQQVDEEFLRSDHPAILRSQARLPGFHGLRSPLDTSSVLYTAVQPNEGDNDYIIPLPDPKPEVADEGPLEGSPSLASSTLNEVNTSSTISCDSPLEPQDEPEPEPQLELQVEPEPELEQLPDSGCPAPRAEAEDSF
# Text: Unphosyhorylated PDGFRβ (uPDGFRβkinase (Seq. ID No. 3) assay
# M-NFS-60 cells = test: M-NFS-60 cell proliferation assay; format: cell-based; conditions: 67 h incubation, resazurin
# Method: M-NFS-60 Cell Proliferation Assay A serial dilution of test compound was dispensed into a 384-well black clear bottom plate (Corning, Corning, N.Y.). Two thousand five hundred cells were added per well in 50 μL complete growth medium. […] IC50 values were calculated from a series of percent inhibition values determined at a range of inhibitor concentrations using software routines as implemented in the GraphPad Prism software package.
# osteoclast precursors = test: Osteoclast tartrate-resistant acid phosphatase assay; format: cell-based; conditions: Osteoclast; 7-14 days, RANKL and M-CSF
# [4] = target: T4, phospho-FMS in THP-1 cells (Homo sapiens, UniProt P07333); test: Phospho-FMS ELISA assay in THP-1 cells; format: cell-based; conditions: 4 hours compound, M-CSF stimulated; read-out: pFMS inhibition in THP-1 cells
# T4 construct: endogenous in cells; host or cells: THP-1 (ATCC TIB-202)
# T4 sequence (P07333 20-972): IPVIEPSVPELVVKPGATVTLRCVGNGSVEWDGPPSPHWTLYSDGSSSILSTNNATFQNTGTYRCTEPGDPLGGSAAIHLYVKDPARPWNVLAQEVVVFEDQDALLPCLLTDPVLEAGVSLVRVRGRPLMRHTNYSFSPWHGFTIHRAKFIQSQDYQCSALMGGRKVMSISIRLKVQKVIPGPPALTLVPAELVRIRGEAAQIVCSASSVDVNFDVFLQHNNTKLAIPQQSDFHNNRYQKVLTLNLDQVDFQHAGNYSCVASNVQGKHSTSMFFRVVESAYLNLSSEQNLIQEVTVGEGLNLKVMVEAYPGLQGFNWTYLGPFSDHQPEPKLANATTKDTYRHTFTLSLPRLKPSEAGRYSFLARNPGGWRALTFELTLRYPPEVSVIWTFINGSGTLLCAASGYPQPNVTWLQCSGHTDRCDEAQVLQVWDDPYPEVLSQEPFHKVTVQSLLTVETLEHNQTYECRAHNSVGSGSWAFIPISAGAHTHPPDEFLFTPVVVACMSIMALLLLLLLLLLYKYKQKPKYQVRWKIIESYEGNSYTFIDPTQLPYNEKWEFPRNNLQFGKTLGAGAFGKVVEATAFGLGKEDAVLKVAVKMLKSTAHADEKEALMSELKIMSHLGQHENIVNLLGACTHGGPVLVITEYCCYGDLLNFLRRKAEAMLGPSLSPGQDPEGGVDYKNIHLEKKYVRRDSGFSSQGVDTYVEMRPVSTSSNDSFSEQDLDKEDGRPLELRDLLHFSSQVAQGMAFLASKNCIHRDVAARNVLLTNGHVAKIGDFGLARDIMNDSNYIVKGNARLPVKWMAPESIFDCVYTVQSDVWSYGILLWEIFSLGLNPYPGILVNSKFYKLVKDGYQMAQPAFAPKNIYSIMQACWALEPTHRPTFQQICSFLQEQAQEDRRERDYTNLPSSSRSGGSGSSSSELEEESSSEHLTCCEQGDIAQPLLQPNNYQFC
# c-FMS = test: cFOS mRNA production in a c-FMS mouse spleen pharmacodynamic model; format: in vivo; conditions: out to 8 h post 30 mg/kg single oral dose, read-out: inhibition of cFOS mRNA levels
# Method: Analysis of cFOS mRNA Production in a c-FMS Mouse Spleen Pharmacodynamic Model To examine the in vivo modulation of FMS activity by compounds of formula I, spleen samples from female DBA/1 mice were collected and analyzed for M-CSF stimulated production of cFOS mRNA. Briefly, six to seven week old female Taconic DBA/1BO J Bom Tac mice were treated with a single oral dose (by gavage) of either vehicle or compound. Plasma and spleen samples are collected from four mice at each timepoint 2, 4, 6, 8, 12, 18, and 24 hours after dosing. Fifteen minutes prior to euthanasia, all mice were injected IV with 1 μg (100 μL fixed volume) of M-CSF. M-CSF, Recombinant Mouse Macrophage Colony Stimulating Factor (36.4 kDa homodimer, ≧98% purity) was obtained from Gibco. All procedures carried out in this experiment were conducted in compliance with all the laws, regulations and guidelines of the National Institutes of Health (NIH). cFOS mRNA levels in spleen extracts were determined using a quantitative reverse transcriptase PCR kit from Life Technologies. Plasma levels of FMS inhibitors were determined by mass spectrometer analysis. The degree of FMS inhibition was correlative to the amount of decrease observed in cFOS mRNA levels in the spleen samples of treated animals compared to vehicle.
SMILES,IC50 [1] [nM],IC50 [2] [nM],IC50 [3] [nM],IC50 (osteoclast precursors) [nM],IC50 [4] [nM],IC50 (M-NFS-60 cells) [nM],inhibition in vivo at 30 mg/kg (c-FMS) [%]
"CC(=O)Nc1cc(Oc2ccc(NC(=O)NC(=O)C(C)(C)C)nc2)ccn1 [Example 3, N-((5-((2-acetamidopyridin-4-yl)oxy)pyridin-2-yl)carbamoyl)pivalamide]",< 10,> 1000,> 1000,< 10,< 10,10 to 100,≥ 50
"CC(=O)Nc1cc(Oc2ccc(NC(=O)NC(=O)C3CCCC3)nc2C)ccn1 [Example 8, N-((5-((2-acetamidopyridin-4-yl)oxy)-6-methylpyridin-2-yl)carbamoyl)cyclopentanecarboxamide]",< 10,100 to 1000,10 to 100,< 10,< 10,< 10,≥ 50
"Cc1nc(NC(=O)NC(=O)C(C)(C)C)ccc1Oc1ccnc(NC(=O)C2CC2)c1 [Example 11, N-(4-((2-methyl-6-(3-pivaloylureido)pyridin-3-yl)oxy)pyridin-2-yl)cyclopropanecarboxamide]",< 10,> 1000,10 to 100,< 10,< 10,< 10,≥ 50
"CN1CCC(C(=O)Nc2cc(Oc3ccc(NC(=O)NC(=O)C(C)(C)C)nc3)ccn2)CC1 [Example 21, 1-methyl-N-(4-((6-(3-pivaloylureido)pyridin-3-yl)oxy)pyridin-2-yl)piperidine-4-carboxamide]",< 10,> 1000,> 1000,< 10,10 to 100,10 to 100,≥ 50
"CN(C)C(=O)Nc1cc(Oc2ccc(NC(=O)NC(=O)C(C)(C)C)nc2)ccn1 [Example 23, N-((5-((2-(3,3-dimethylureido)pyridin-4-yl)oxy)pyridin-2-yl)carbamoyl)pivalamide]",< 10,> 1000,100 to 1000,< 10,< 10,< 10,≥ 50

# Continued, in another order:
IC50 [1] [nM],IC50 [2] [nM],IC50 [3] [nM],IC50 (osteoclast precursors) [nM],IC50 [4] [nM],SMILES,IC50 (M-NFS-60 cells) [nM],inhibition in vivo at 30 mg/kg (c-FMS) [%]
< 10,> 1000,100 to 1000,< 10,< 10,"COC(C)(C)C(=O)NC(=O)Nc1ccc(Oc2ccnc(NC(C)=O)c2)cn1 [Example 26, N-((5-((2-acetamidopyridin-4-yl)oxy)pyridin-2-yl)carbamoyl)-2-methoxy-2-methylpropanamide]",10 to 100,≥ 50
< 10,> 1000,> 1000,10 to 100,10 to 100,"CNC(=O)c1cc(Oc2ccc(NC(=O)NC(=O)C(C)(C)C)nc2)ccn1 [Example 34, N-methyl-4-((6-(3-pivaloylureido)pyridin-3-yl)oxy)picolinamide]",10 to 100,≥ 50
< 10,> 1000,> 1000,10 to 100,< 10,"Cc1nc(NC(=O)NC(=O)C(C)(C)C)ccc1Oc1ccnc(NC(=O)N(C)C)c1 [Example 62, N-((5-((2-(3,3-dimethylureido)pyridin-4-yl)oxy)-6-methylpyridin-2-yl)carbamoyl)pivalamide]",< 10,≥ 50
< 10,> 1000,> 1000,< 10,< 10,"Cc1nc(NC(=O)NC(=O)C(C)(C)C)ccc1Oc1ccnc(NC(=O)N2CCN(C)CC2)c1 [Example 69, 4-methyl-N-(4-((2-methyl-6-(3-pivaloylureido)pyridin-3-yl)oxy)pyridin-2-yl)piperazine-1-carboxamide]",< 10,
